We go through 14 compounds from US11111242B2, “Pyrrolo[2,3-d]pyrimidinyl, pyrrolo[2,3-b]pyrazinyl and pyrrolo[2,3-d]pyridinyl acrylamides” (Pfizer Inc., priority 2013, dated 2021).

The test system of test [1] is IL-15 induced STAT5 phosphorylation in Human Whole Blood (total lymphocytes). Description: HWB IL-15 Induced STAT5 Phosphorylation Assay. It is filed as cell-based. The conditions noted are these: Lymphocyte, IL-15 stimulated, read-out: HWB-IL15-pSTAT5 IC50. The procedure:
HWB IL-15 Induced STAT5 Phosphorylation Assay
After mixing and incubating for 45 minutes at 37° C., 5 μl D-PBS (unstimulated control) or 20× stocks of 5 μl human IL-15 (final concentration is 50 ng/ml) were added, and mixed three times. After incubating 15 minutes at 37° C., 1× Lyse/Fix Buffer (BD Phosflow 5× Lyse/Fix Buffer) was added to all wells at 1000 μl/well, then incubated for 20 minutes at 37° C. and spun 5 mins at 1200 rpm. […] Following incubating at 4° C. over night, all the samples were transferred to 96-well polypropylene U-bottom plate, and checked by flow cytometry gated on total lymphocytes.

Test [2] has as its system IL-15 induced P-STAT5 in human PBMC (total lymphocytes). The experiment in a line: PBMC IL-15 Induced P-STAT5. As to conditions: IL-15 stimulated, read-out: PBMC IL15-pSTAT5 IC50. It is filed as cell-based. Put shortly: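 Thawed human PBMC in RPMI, preincubated 30 min at 37 °C, then IL-15 stimulated. Cells methanol-permeabilized (90%, on ice 20 min) and stained for phospho-STAT5. Read by flow cytometry, gated on total lymphocytes.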

Molecules are shown by their SMILES. Read-outs that look alike come from different tables or passages of the source.

As a reminder, the IC50 is the concentration that gives 50% inhibition. On to `C=CC(=O)N1CC[C@H](C)[C@@H](Nc2ncnc3[nH]ccc23)C1` (racemic) [Example 50, 1-[(3R,4S)-4-methyl-3-(7H-pyrrolo[2,3-d]pyrimidin-4-ylamino)piperidin-1-yl]prop-2-en-1-one], for which the IC50 in test [1] was 926 nM; in test [2] (Homo sapiens, PBMC), 202 nM.

For the compound `C=CC(=O)N1C[C@H](Nc2ncnc3[nH]ccc23)CC[C@@H]1C` (racemic) [Example 129, rac-1-[(2S,5R)-2-Methyl-5-(7H-pyrrolo[2,3-d]pyrimidin-4-ylamino)piperidin-1-yl]prop-2-en-1-one], the half-inhibitory concentration (IC50) in test [1] stood at 797 nM; in test [2] it was 114 nM.

On to `C=CC(=O)N1C[C@H](Nc2ncnc3[nH]ccc23)CC[C@@H]1CC` (single isomer, unassigned) [Example 9], for which the IC50 in test [1] turned out to be 578 nM; in test [2] (Homo sapiens, PBMC) it was 35.5 nM.

Turning to `C=CC(=O)N1C[C@@H](C)C[C@@H](Nc2ncnc3[nH]ccc23)C1` (single isomer, unassigned) [Example 14], the results for the concentration for half-maximal inhibition (IC50) in test [1] and in test [2] were 538 nM and 114 nM, respectively.

In the case of `C=CC(=O)N1C[C@H](Nc2ncnc3[nH]ccc23)CCC1(C)C` (single isomer, unassigned) [Example 61], the 50% inhibitory concentration (IC50) amounted to 1870 nM in test [1] and 1030 nM in test [2] (Homo sapiens, PBMC).

On to `C=CC(=O)N1CCC[C@@H](Nc2ncnc3[nH]cc(Cl)c23)C1` [Example 3, (R)-1-(3-((5-chloro-7H-pyrrolo[2,3-d]pyrimidin-4-yl)amino)piperidin-1-yl)prop-2-en-1-one], for which the concentration for half-maximal inhibition (IC50) in test [1] was 153 nM; in test [2] (Homo sapiens, PBMC), 35.2 nM.

Take `C=CC(=O)N1CC[C@H](F)[C@@H](Nc2ncnc3[nH]ccc23)C1` [Example 4, 1-((3S,4S)-3-((7H-pyrrolo[2,3-d]pyrimidin-4-yl)amino)-4-fluoropiperidin-1-yl)prop-2-en-1-one]: the concentration for half-maximal inhibition (IC50) stood at 115 nM in test [1] and 19.7 nM in test [2] (Homo sapiens, PBMC).

With `C=CC(=O)N1C[C@H](C#N)C[C@@H](Nc2ncnc3[nH]ccc23)C1` [Example 6, (3R,5R)-5-((7H-pyrrolo[2,3-d]pyrimidin-4-yl)amino)-1-acryloylpiperidine-3-carbonitrile], the IC50 in test [1] came to 870 nM; in test [2], 45.8 nM.

As to `C=CC(=O)N1C[C@H](F)C[C@@H](Nc2ncnc3[nH]ccc23)C1` [Example 10, 1-((3R,5R)-3-((7H-pyrrolo[2,3-d]pyrimidin-4-yl)amino)-5-fluoropiperidin-1-yl)prop-2-en-1-one], the IC50 is 461 nM in test [1] and 133 nM in test [2] (Homo sapiens, PBMC).

As for `C=CC(=O)N1CC[C@H](C)[C@@H](Nc2ncnc3[nH]ccc23)C1` [Example 11, 1-((3R,4S)-3-((7H-pyrrolo[2,3-d]pyrimidin-4-yl)amino)-4-methylpiperidin-1-yl)prop-2-en-1-one], the IC50 in test [1] was determined as 363 nM; in test [2] (Homo sapiens, PBMC), 97.9 nM.

Turning to `C=CC(=O)N1CCC[C@@H](Nc2ncnc3[nH]ccc23)C1` [Example 12, (R)-1-(3-((7H-Pyrrolo[2,3-d]pyrimidin-4-yl)amino)piperidin-1-yl)prop-2-en-1-one], the IC50 in test [1] worked out at 392 nM; in test [2] (Homo sapiens, PBMC), 107 nM.

`C=CC(=O)N1C[C@H](Nc2ncnc3[nH]cc(CCOC)c23)CC[C@@H]1C` [Example 13, 1-((2S,5R)-5-((5-(2-Methoxyethyl)-7H-pyrrolo[2,3-d]pyrimidin-4-yl)amino)-2-methylpiperidin-1-yl)prop-2-en-1-one]: the concentration for half-maximal inhibition (IC50) in test [1] was determined as 549 nM; in test [2], 114 nM.

As to `C=CC(=O)N1C[C@@H](F)C[C@@H](Nc2ncnc3[nH]ccc23)C1` [Example 15, 1-((3R,5S)-3-((7H-Pyrrolo[2,3-d]pyrimidin-4-yl)amino)-5-fluoropiperidin-1-yl)prop-2-en-1-one], the half-maximal inhibitory concentration (IC50) in test [1] turned out to be 400 nM; in test [2] (Homo sapiens, PBMC), 128 nM.

As to `C=CC(=O)N1C[C@@H](O)C[C@@H](Nc2ncnc3[nH]ccc23)C1` [Example 17, 1-((3R,5S)-3-(7H-Pyrrolo[2,3-d]pyrimidin-4-ylamino)-5-hydroxypiperidin-1-yl)prop-2-en-1-one], the 50% inhibitory concentration (IC50) is 210 nM in test [1] and 71.8 nM in test [2] (Homo sapiens, PBMC).
